Test results: patent publication US7919680B2, “Nucleic acids encoding anthelmintic agents and plants made therefrom” (Divergence, Inc., priority 2004, dated 2011)

Experiments:
C. elegans [1] = assay: Nematicidal activity of methyl ester, salt and free fatty acid emulsions vs. C. elegans N2s (Table 3); type: in vivo, Caenorhabditis elegans
Excerpt: Nematicidal Activity of Single Fatty Acid Methyl Ester, Salt and Free Fatty Acid Emulsions Against Caenorhabditis elegans […] and Dauers

C. elegans dauers = assay: Nematicidal activity of methyl ester, salt and free fatty acid emulsions vs. C. elegans dauers (Table 4); type: in vivo, Caenorhabditis elegans
M. incognita [2] = assay: Nematicidal activity of fatty acid methyl ester emulsions against root knot nematode J2 larvae (Table 5); type: in vivo; conditions: 0.1% emulsion; 48 hours incubation, counted about 24 hours after transfer to plates
Description: (§1) M. incognita and M. javanica were prepared from tomato roots. The roots were bleached and the debris was separated from the J2 larvae and eggs by filtration followed by sucrose density gradient centrifugation. Eggs were hatched over 4 days at 15° C. and the J2 larvae were collected by passage though a filter, followed by centrifugation.
(§2) Nematodes and emulsions were incubated with shaking at room temperature for 48 hours. The contents of each well were transferred to a small spot on individual NGM plates lacking bacteria. About 24 hours after the transfer to plates, worms on and off the inoculation spot were counted as not viable or viable, respectively. Worms were considered viable if they had crawled away from the inoculation spot, or if they were moving. Worms were considered non-viable if they remained at the inoculation spot.

M. javanica [3] = assay: as above; type: in vivo; conditions: 0.1% emulsion; 48 hours incubation, counted about 24 hours after transfer to plates
Description: as §1, §2

tomato seedlings = assay: Phytotoxicity evaluation of fatty acid methyl esters on tomato seedlings; type: in vivo; conditions: 250 μl of 1% emulsion at stem-media interface of two-week seedlings
Description: Sterilized tomato seeds were germinated in magenta jars containing Gamborg's agar media. After two weeks of growth, seedlings were treated with 250 μl of 1% fatty acid methyl ester emulsion (nonanoic acid, ricinoleic acid, ricinelaidic acid, oleic acid, or a control emulsion lacking any fatty acid), applied directly to the stem-media interface. Tomato seedlings were scored at various times after application of emulsions.

C. elegans [4] = assay: Nematicidal activity of fatty acid methyl ester emulsions, nematode spectrum (Table 6); type: in vivo, Caenorhabditis elegans; conditions: C. elegans mixed stage
Description: (§3) Briefly, the indicated fatty acid emulsions were added to nematodes in wells of a 24-well plate and rapidly mixed by swirling. […] Results shown are mean % values obtained from multiple independent experiments
(§4) The Caenorhabditis elegans were mixed stage populations. Similar effects were seen on several other free-living nematode species. The Parastrongyloides trichosuri (parasite of Australian bushtail possum) were dauer-like infective 3rd stage larva. Similar effects are also seen against free-living stages. The Meloidogyne incognita and Meloidogyne javanica (root knot nematode) were 2nd stage juveniles (dauer-like infective stage). The Heterodera glycines (soybean cyst nematode) were 2nd stage juveniles (dauer-like infective stage). Finally, the Pratylenchus scribneri (corn lesion nematode) were mixed stage populations.

P. trichosuri = assay: as above; type: in vivo, Parastrongyloides trichosuri; conditions: P. trichosuri infective 3rd stage larva
Description: as §3, §4

M. incognita [5] = assay: as above; type: in vivo, Meloidogyne incognita; conditions: M. incognita 2nd stage juveniles, head 24 hr, b171 48 hours
Description: as §3, §4

M. javanica [6] = assay: as above; type: in vivo, Meloidogyne javanica; conditions: M. javanica 2nd stage juveniles, head 24 hr, b171 48 hours
Description: as §3, §4

H. glycines = assay: as above; type: in vivo, Heterodera glycines; conditions: H. glycines 2nd stage juveniles, head 24 hr, b171 48 hours
Description: as §3, §4

P. scribneri = assay: as above; type: in vivo, Pratylenchus scribneri; conditions: P. scribneri mixed stage
Description: as §3, §4

[7] = test system: wide spectrum of divergent nematode genera; assay: Summary of Table 6: free-living, animal parasitic and plant parasitic nematodes; type: in vivo; conditions: concentrations of 0.1% and 0.01%
Description: as §3

[8] = test system: everted hamster jejunal and ileal segments; conditions: Gaginella et al. (1975); cited from earlier work
C. elegans [9] = assay: Nematicidal activity of fatty acid methyl ester emulsions against C. elegans (Table 2)
L4 and adult C. elegans = conditions: Stadler and coworkers; cited from earlier work
Caenorhabditis elegans = conditions: 100 μg/mL over 24 hours; Momin & Nair (2002); cited from earlier work
Panagrellus redivivus = conditions: 100 μg/mL over 24 hours; Momin & Nair (2002); cited from earlier work
[10] = test system: isolated intestinal epithelial cells; conditions: Gaginella et al. (1977); cited from earlier work

CCCCCC[C@@H](O)C/C=C\CCCCCCCC(=O)OC [Ricinoleic Acid (C18-methyl ester), ricinoleic acid methyl ester]
worm death (C. elegans [1]; 0.001% emulsion): 20%
worm death (C. elegans [1]; 0.01% emulsion): 40%
worm death (C. elegans [1]; 0.1% emulsion): 90%
worm death (C. elegans dauers; 0.01% emulsion): 30%
worm death (C. elegans dauers; 0.1% emulsion): 70%
M. incognita (% not viable) (M. incognita [2]): 95%
M. javanica (% not viable) (M. javanica [3]): 60%
phytotoxic effects on tomato seedlings (tomato seedlings): low phytotoxicity
% Worm Death (24 hr) (C. elegans [4]; 0.001% solution): 30%
% Worm Death (24 hr) (C. elegans [4]; 0.01% solution): 50%
% Worm Death (24 hr) (C. elegans [4]; 0.1% solution): 90%
% Worm Death (24 hr) (P. trichosuri; 0.01% solution): ~60%
% Worm Death (24 hr) (P. trichosuri; 0.1% solution): ~50%
% Worm Death (24 hr) (M. incognita [5]; 0.01% solution): 83%
% Worm Death (24 hr) (M. incognita [5]; 0.1% solution): 95%
% Worm Death (24 hr) (M. javanica [6]; 0.01% solution): 5%
% Worm Death (24 hr) (M. javanica [6]; 0.1% solution): 60%
% Worm Death (24 hr) (H. glycines; 0.001% solution): ~40%
% Worm Death (24 hr) (H. glycines; 0.01% solution): ~60%
% Worm Death (24 hr) (H. glycines; 0.1% solution): ~60%
% Worm Death (24 hr) (P. scribneri; 0.01% solution): <20%
% Worm Death (24 hr) (P. scribneri; 0.1% solution): <20%
nematicidal activity [7]: strongly nematicidal
effect on water and electrolyte absorption [8]: ineffective
Percentage of Worm Death 1 hr (C. elegans [9]; 0.003% emulsion): 40%
Percentage of Worm Death 6 hr (C. elegans [9]; 0.003% emulsion): 40%
Percentage of Worm Death 24 hr (C. elegans [9]; 0.003% emulsion): 40%
Percentage of Worm Death 1 hr (C. elegans [9]; 0.1% emulsion): 80%
Percentage of Worm Death 6 hr (C. elegans [9]; 0.1% emulsion): 80%
Percentage of Worm Death 24 hr (C. elegans [9]; 0.1% emulsion): 90%
nematicidal activity (C. elegans [9]; concentration of 0.1%): strongly nematicidal
time before strong killing effects are apparent (C. elegans [9]; emulsion, Table 2): up to 30 minutes

CCCCCCCC/C=C\CCCCCCCC(=O)O [oleic acid]
LD50 (L4 and adult C. elegans): 25 µg/mL
LD90 (L4 and adult C. elegans): 100 µg/mL
nematicidal activity (Caenorhabditis elegans): not nematicidal
nematicidal activity (Panagrellus redivivus): not nematicidal

CCCCCC[C@@H](O)C/C=C\CCCCCCCC(=O)O [R free acid, ricinoleic acid]
worm death (C. elegans [1]; 0.001% emulsion): <5%
worm death (C. elegans [1]; 0.01% emulsion): 50%
worm death (C. elegans [1]; 0.1% emulsion): 95%
worm death (C. elegans dauers; 0.01% emulsion): 75%
worm death (C. elegans dauers; 0.1% emulsion): 90%
effect on water and electrolyte absorption [8]: inhibitory effect
cytotoxicity [10]: cytotoxic
